Assay results as given in the Biogen ADME set (Fang et al. 2023).
≈ marks a conversion by molar mass, not a printed value. Values belong to the compound of their own block, whether it stands above or below them.

Conditions: for aqueous solubility: pH 6.8

Compound: C=CC(=O)N1C[C@H](Nc2ncnc3[nH]ccc23)CC[C@@H]1C
MDR1-MDCK efflux ratio: 65.6 | fraction unbound, human plasma: 0.673 | fraction unbound, rat plasma: 0.557 | intrinsic clearance, human liver microsomes: ≤ 4.74 mL/min/kg | intrinsic clearance, rat liver microsomes: 27.3 mL/min/kg | aqueous solubility: 53.7 µg/mL (≈ 188 µM)

Compound: CC(C)(C)OC(=O)c1ccc(-n2[nH]cc(-n3ccnn3)c2=O)nc1
MDR1-MDCK efflux ratio: 1.19 | intrinsic clearance, human liver microsomes: ≤ 4.74 mL/min/kg | intrinsic clearance, rat liver microsomes: 20.7 mL/min/kg

Compound: Oc1cncc(/C=C/c2nc(-c3ccncc3)no2)c1
intrinsic clearance, human liver microsomes: 31.8 mL/min/kg | intrinsic clearance, rat liver microsomes: 239 mL/min/kg

Compound: CN1CCC(n2ncc3[nH]c(-c4ccc5ccccc5c4)nc32)CC1
MDR1-MDCK efflux ratio: 13.9 | intrinsic clearance, human liver microsomes: 23.4 mL/min/kg | intrinsic clearance, rat liver microsomes: 928 mL/min/kg | aqueous solubility: 42.1 µg/mL (≈ 127 µM)

Compound: CN(CC1CCC1)C(=O)C1CCN(c2ccc3nncn3n2)CC1
MDR1-MDCK efflux ratio: 11.6 | intrinsic clearance, human liver microsomes: 7.72 mL/min/kg | intrinsic clearance, rat liver microsomes: 126 mL/min/kg

Compound: COc1cc(C)cc(OC)c1-c1ccc(-c2nn[nH]n2)cc1
MDR1-MDCK efflux ratio: 1.97 | intrinsic clearance, human liver microsomes: ≤ 4.74 mL/min/kg | intrinsic clearance, rat liver microsomes: 83.2 mL/min/kg

Compound: CCCn1cc(C(=O)N2CCC(c3n[nH]cc3C(=O)N(C)Cc3ccccc3)CC2)cn1
MDR1-MDCK efflux ratio: 9.45 | intrinsic clearance, human liver microsomes: 129 mL/min/kg | intrinsic clearance, rat liver microsomes: 561 mL/min/kg | aqueous solubility: 45.3 µg/mL (≈ 104 µM)

Compound: CC(=O)N1CCC2(C=Cc3cc(C)c(C)cc3O2)CC1
MDR1-MDCK efflux ratio: 0.579 | intrinsic clearance, human liver microsomes: 12.4 mL/min/kg | intrinsic clearance, rat liver microsomes: 1020 mL/min/kg

Compound: CC1=C(Br)CN(CCc2nc3ccccc3c(=O)[nH]2)CC1
MDR1-MDCK efflux ratio: 0.856 | intrinsic clearance, human liver microsomes: 133 mL/min/kg | intrinsic clearance, rat liver microsomes: 2050 mL/min/kg

Compound: COc1ccc(CN2CCN(C(=O)C3CCN(C(=O)C4CC4)CC3)CC2)cc1
MDR1-MDCK efflux ratio: 7.58 | intrinsic clearance, human liver microsomes: ≤ 4.74 mL/min/kg | intrinsic clearance, rat liver microsomes: 50.4 mL/min/kg

Compound: O=C(CCNC(=O)c1ccc(OC(F)(F)F)cc1)N[C@@H]1CCCc2ccccc21
MDR1-MDCK efflux ratio: 3.14 | fraction unbound, human plasma: 0.0336 | fraction unbound, rat plasma: 0.0427 | intrinsic clearance, human liver microsomes: 154 mL/min/kg | intrinsic clearance, rat liver microsomes: 797 mL/min/kg | aqueous solubility: 4.6 µg/mL (≈ 11.3 µM)

Compound: COc1ccc(C(=O)N(C)Cc2nccn2C)c(F)c1
MDR1-MDCK efflux ratio: 2.22 | intrinsic clearance, human liver microsomes: ≤ 4.74 mL/min/kg | intrinsic clearance, rat liver microsomes: 53.8 mL/min/kg | aqueous solubility: 52.5 µg/mL (≈ 189 µM)

Compound: CC(C)n1cc(CN2CCC(c3nc(N(C)C)no3)CC2)cn1
MDR1-MDCK efflux ratio: 1.79 | intrinsic clearance, human liver microsomes: ≤ 4.74 mL/min/kg | intrinsic clearance, rat liver microsomes: 179 mL/min/kg

Compound: CCOC(=O)Cc1c(C)[nH]c2c(-c3ccccc3)cnn2c1=O
MDR1-MDCK efflux ratio: 18 | intrinsic clearance, human liver microsomes: 6.21 mL/min/kg | intrinsic clearance, rat liver microsomes: 89.6 mL/min/kg | aqueous solubility: 14.9 µg/mL (≈ 47.9 µM)

Continued, values first:

MDR1-MDCK efflux ratio: 11.5 | intrinsic clearance, human liver microsomes: 80.7 mL/min/kg | intrinsic clearance, rat liver microsomes: 294 mL/min/kg
Compound: Cc1c(C(=O)Nc2ccc(N3CCC(N4CCOCC4)CC3)c(C#N)c2)cnn1-c1ccc(Cl)cc1

MDR1-MDCK efflux ratio: 0.871 | fraction unbound, human plasma: 0.0178 | intrinsic clearance, human liver microsomes: 88.4 mL/min/kg | intrinsic clearance, rat liver microsomes: 1840 mL/min/kg
Compound: CCC(=O)N1CCN(c2ccc(Cl)cc2NC(=O)COc2ccccc2)CC1

MDR1-MDCK efflux ratio: 0.471 | intrinsic clearance, human liver microsomes: 22.2 mL/min/kg | intrinsic clearance, rat liver microsomes: 155 mL/min/kg | aqueous solubility: 4.85 µg/mL (≈ 18.5 µM)
Compound: Cc1cccc(NC(=O)c2cccc3ncccc23)c1

intrinsic clearance, human liver microsomes: 11.1 mL/min/kg | intrinsic clearance, rat liver microsomes: 52.7 mL/min/kg
Compound: CC(=O)c1ccc(-c2ccc(-c3nn[nH]n3)cc2)cc1

MDR1-MDCK efflux ratio: 0.748 | intrinsic clearance, human liver microsomes: 112 mL/min/kg | intrinsic clearance, rat liver microsomes: 807 mL/min/kg | aqueous solubility: 1.7 µg/mL (≈ 4.49 µM)
Compound: O=C(CN1CCCN(c2ccc(C(F)(F)F)cn2)CC1)Nc1ccccc1

MDR1-MDCK efflux ratio: 2.67 | intrinsic clearance, human liver microsomes: 13.8 mL/min/kg | intrinsic clearance, rat liver microsomes: 318 mL/min/kg | aqueous solubility: 32.7 µg/mL (≈ 116 µM)
Compound: Cc1cnn(CC2CC2)c1NC(=O)/C=C/c1ccccc1

MDR1-MDCK efflux ratio: 1.32 | intrinsic clearance, human liver microsomes: 9.83 mL/min/kg | intrinsic clearance, rat liver microsomes: 32.7 mL/min/kg
Compound: CCN(CCOC)C(=O)Nc1ccc2occc(=O)c2c1
